Paper PMC4230991, “In Silico Design and Biological Evaluation of a Dual Specificity Kinase Inhibitor Targeting Cell Cycle Progression and Angiogenesis” (PLoS ONE, 2014)
Like-named read-outs stand apart in the source and are kept apart here.

How the values were obtained:
[1] = system: IGF-1-mediated signaling; test: Immunoblot of IGF-1-mediated signaling in HUVECs; type: cell-based, human; details: JK-31 0.1-50 µM, IGF-1 100 ng/ml 10 min
Experimental: (§1) All experiments were conducted at <6 cell passages.
Supplementary file pone.0110997.s006.tif: Figure S6 Relative specificity of JK-31 for the VEGF-A-VEGFR2 signaling pathway. […] HUVECs were pre-treated with JK-31 (0, 0.1, 1, 10 or 50 µM) for 30 min followed by a 10 min stimulation with either (A) EGF (50 ng/ml) or (B) IGF-1 (100 ng/ml) in the presence of JK-31. Total cell lysates were prepared and processed for immunoblotting. Levels of phosphorylated Akt and ERK1/2 were analysed using phospho-specific antibodies. Membranes were stripped and re-probed for total protein levels and a loading control (α-tubulin). Representative immunoblots of three independent experiments are shown. (TIF) Click here for additional data file.

[2] = system: HUVECs; test: Flow cytometry analysis of cell cycle progression, endothelial cells; details: 48 h
Experimental: (§3) Cells were pelleted at 140 g at 4°C for 5 min and supernatant discarded. Cells were fixed in ice-cold 70% (v/v) ethanol added dropwise and stored at −20°C prior to analysis. Immediately before flow cytometry, cells were pelleted (140 g at 4°C for 5 min), supernatant removed and cells washed twice in 500 µl PBS. 100 µg/ml ribonuclease and 50 µg/ml propidium iodide (Sigma-Aldrich) was added to each sample and incubated for 2–3 h at 37°C. Cells were pelleted (140 g at 4°C for 5 min), supernatant removed and cells washed in 500 µl PBS before being resuspended in 500 µl PBS buffer containing 2.5 mM EDTA. Samples were gated and run at a low flow rate (<1000 events s^−1) on a Fortessa flow cytometer (Becton Dickinson, Oxford, UK) with multi-laser and detection capabilities. The information from 10000 events was collect and data was analyzed using ModFit software (Becton Dickinson).
(H) Quantification of cell cycle ratios after inhibitor treatment. Error bars represent ±SEM (n = 3). ***p<0.001; ****p<0.0001.

[3] = target: T1, recombinant human VEGFR2 (Homo sapiens, UniProt P35968); test: 33P in vitro kinase HotSpot profiling assay, VEGFR2; type: biochemical
T1 construct: purchased Reaction Biology
T1 sequence (P35968 20-1356): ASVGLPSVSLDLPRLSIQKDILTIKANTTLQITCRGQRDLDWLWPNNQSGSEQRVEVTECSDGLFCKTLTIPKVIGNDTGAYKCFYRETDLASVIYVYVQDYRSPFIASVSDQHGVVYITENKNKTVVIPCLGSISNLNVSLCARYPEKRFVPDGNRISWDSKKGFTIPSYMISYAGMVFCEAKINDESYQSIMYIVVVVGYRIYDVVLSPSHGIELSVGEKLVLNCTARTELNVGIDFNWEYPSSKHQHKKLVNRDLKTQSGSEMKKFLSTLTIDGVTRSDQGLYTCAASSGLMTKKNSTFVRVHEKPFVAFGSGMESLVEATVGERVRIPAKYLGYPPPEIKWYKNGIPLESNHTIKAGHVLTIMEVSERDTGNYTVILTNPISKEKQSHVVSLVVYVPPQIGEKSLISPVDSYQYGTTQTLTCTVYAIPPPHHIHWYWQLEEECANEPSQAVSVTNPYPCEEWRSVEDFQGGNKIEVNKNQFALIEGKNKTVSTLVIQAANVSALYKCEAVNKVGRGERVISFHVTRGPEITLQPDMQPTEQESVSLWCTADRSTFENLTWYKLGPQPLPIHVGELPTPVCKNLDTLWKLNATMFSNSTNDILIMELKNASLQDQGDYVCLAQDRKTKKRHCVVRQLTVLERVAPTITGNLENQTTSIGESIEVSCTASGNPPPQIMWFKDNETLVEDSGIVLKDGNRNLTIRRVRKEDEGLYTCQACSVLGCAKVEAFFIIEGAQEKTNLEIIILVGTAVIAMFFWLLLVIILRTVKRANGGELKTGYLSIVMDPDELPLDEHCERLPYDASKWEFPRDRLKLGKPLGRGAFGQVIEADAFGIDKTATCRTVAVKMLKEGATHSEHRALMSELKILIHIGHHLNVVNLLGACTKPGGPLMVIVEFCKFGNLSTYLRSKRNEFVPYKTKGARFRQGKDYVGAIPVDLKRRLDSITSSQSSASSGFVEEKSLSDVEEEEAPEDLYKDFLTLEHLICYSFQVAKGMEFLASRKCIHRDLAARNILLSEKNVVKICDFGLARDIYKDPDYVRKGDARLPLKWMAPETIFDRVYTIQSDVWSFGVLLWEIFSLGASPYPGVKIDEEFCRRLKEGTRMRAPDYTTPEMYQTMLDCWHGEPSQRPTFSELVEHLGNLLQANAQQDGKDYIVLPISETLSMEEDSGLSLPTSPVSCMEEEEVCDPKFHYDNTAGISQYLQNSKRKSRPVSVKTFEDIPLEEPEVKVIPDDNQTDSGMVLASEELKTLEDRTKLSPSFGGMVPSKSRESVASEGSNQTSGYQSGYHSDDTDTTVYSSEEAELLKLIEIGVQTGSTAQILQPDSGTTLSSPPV

[4] = target: T2, recombinant human CDK1/cyclin B complex (Homo sapiens, UniProt P06493); test: 33P in vitro kinase HotSpot profiling assay, CDK1/cyclin B; type: biochemical; details: [γ-33P]-ATP 10 µM; substrate histone H1; ten-point curves
T2 construct: purchased Reaction Biology
T2 sequence (P06493 whole entry): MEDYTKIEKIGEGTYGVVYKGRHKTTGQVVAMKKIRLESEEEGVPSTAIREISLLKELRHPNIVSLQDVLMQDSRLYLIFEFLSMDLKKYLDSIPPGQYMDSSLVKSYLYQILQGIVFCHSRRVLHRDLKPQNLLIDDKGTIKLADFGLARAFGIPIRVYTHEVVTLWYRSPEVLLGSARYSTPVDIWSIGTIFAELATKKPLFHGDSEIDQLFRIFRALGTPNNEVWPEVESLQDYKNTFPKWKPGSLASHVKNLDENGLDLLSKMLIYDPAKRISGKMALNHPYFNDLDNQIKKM
T2 sequence (P14635 whole entry partner): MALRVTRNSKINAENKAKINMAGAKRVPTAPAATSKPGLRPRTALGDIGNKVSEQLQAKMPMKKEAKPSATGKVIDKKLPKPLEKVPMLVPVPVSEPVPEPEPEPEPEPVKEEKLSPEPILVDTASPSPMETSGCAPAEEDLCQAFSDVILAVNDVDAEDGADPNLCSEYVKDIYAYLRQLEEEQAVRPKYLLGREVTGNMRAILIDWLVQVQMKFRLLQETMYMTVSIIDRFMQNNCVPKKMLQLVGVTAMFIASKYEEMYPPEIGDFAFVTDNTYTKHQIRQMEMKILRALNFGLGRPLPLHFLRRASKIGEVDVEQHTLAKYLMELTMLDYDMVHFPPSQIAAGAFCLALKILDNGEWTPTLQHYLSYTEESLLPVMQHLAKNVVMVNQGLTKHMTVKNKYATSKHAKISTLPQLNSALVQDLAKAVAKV

[5] = system: HUVECs; test: Scratch wound healing assay; type: cell-based, human; details: 10 µM and above, 16 h
Experimental: Figure 4 JK-31 inhibits endothelial wound closure in vitro. (A) Scratch-wounded endothelial cell monolayers were incubated in either full growth medium (grey bars) or stimulated with 25 ng/ml VEGF-A (black bars) for 16 h in the presence of DMSO or JK-31 (1, 10 or 50 µM). Wounded cell monolayers were photographed before and after treatment and wound widths at each time point were measured using Image J software. Percentage wound closure was calculated by [(width before – width after)/width before] ×100. […] (B) Representative phase-contrast micrographs depicting wound closure over 16 h in the presence VEGF-A and either DMSO or JK-31 (10 µM).

[6] = system: VEGFR2; test: Immunoblot of VEGF-A-stimulated VEGFR2 activation and downstream signaling in HUVECs; type: cell-based, human
Experimental: as §1
(§2) Figure 2 JK-31 inhibits growth factor-stimulated receptor activation and downstream signal transduction. (A) HUVECs were pre-treated with JK-31 (0, 0.1, 1, 10 or 50 µM) for 30 min followed by 7.5 min stimulation with VEGF-A (25 ng/ml) in the presence of JK-31. Total cell lysates were prepared and processed for immunoblotting. Levels of phosphorylated VEGFR2, PLCγ1, Akt and ERK were analysed using phospho-specific antibodies. Membranes were stripped and re-probed for total protein levels and a loading control (α-tubulin). (B) Densitometric quantification of phosphorylated VEGFR2-pY1175 levels in response to VEGF-A and JK-31 treatment. Error bars represent ± SEM (n = 4; ***p<0.001). (C-D) JK-31 inhibits FGF-stimulated intracellular signaling in endothelial cells. HUVECs were pre-treated with JK-31 (0, 0.1, 1, 10 or 50 µM) for 30 min followed by 10 min stimulation with either (C) bFGF (50 ng/ml) or (D) aFGF (50 ng/ml) in the presence of JK-31. Cells were lysed and processed for immunoblotting. Representative immunoblots of three independent experiments are shown.

[7] = system: HUVECs; test: MTS cell viability assay; type: cell-based, human; details: two days (48 h), concentrations of up to 50 µM
Experimental: 2000 endothelial cells were seeded per well of a 96-well plate and cultured in ECGM overnight. ECGM was then aspirated and cells starved in MCDB131 +0.2% (w/v) BSA for 2 h. After 2 h, media was changed for ECGM with or without DMSO, plus or minus 100 nM, 1 µM, 10 µM or 50 µM JK-31 and cells incubated for 48 h. Then, 10 µl of MTS reagent (CellTiter 96 AQueous Non-Radioactive Cell Proliferation Assay, Promega, Madison, Wisconsin, USA) was added to each well after 44 h. After further incubation for 4-6 h, we monitored the color change caused by reduction of the yellow tetrazolium compound (MTS) by metabolically active cells to brown formazan. Change in color was monitored at 490 nm using a Tecan Sunrise multiwavelength 96-well plate reader (Tecan, Mannedorf, Switzerland).
(A) Relevant protein expression in HUVECs and MCF-7 cells. Total cell lysates were processed for immunoblotting. Membranes were probed with antibodies raised against VEGFR2, CDK1 and β-actin. Representative immunoblot was shown. (B) HUVECs were treated with DMSO or JK-31 (0.1, 1, 10, 50 µM) in full growth medium for 48 h followed by MTS assay and subsequent measurement of absorbance at OD490. Error bars represent ±SEM (n = 5). (TIF) Click here for additional data file.

[8] = system: MCF-7 cells; test: Flow cytometry analysis of cell cycle progression, breast cancer cells; details: 48 h
Experimental: as §3
(H) Quantification of cell cycle ratios after inhibitor treatment. Error bars represent ±SEM (n = 3).). *p<0.05; **p<0.01; ***p<0.001; ****p<0.0001.

[9] = system: FGF-stimulated intracellular signaling; test: Immunoblot of FGF (aFGF, bFGF)-stimulated ERK1/2 phosphorylation in HUVECs; type: cell-based, human; details: JK-31 0.1-50 µM
Experimental: as §1, §2

[10] = system: mouse aortic ring explants; test: Ex vivo murine aortic ring angiogenesis assay; type: cell-based; details: 10 µM and above, six days, Matrigel
Experimental: Three male five-month old wild type C57Bl/6 mice were humanely sacrificed followed by cervical dislocation. A thoraco-abdominal incision was made and the heart and aorta excised and stored in Hank's balanced buffer. The aortas were cleaned by removing connective tissue and adventitia from the exterior and each aorta was cut into 18–24 rings. Ring explants were embedded into growth-factor reduced Matrigel basement membrane matrix (Beckton Dickinson) in a 24-well plate and incubated for 45 min at 37°C to allow the Matrigel to set and the rings to adhere. […] Rings were photographed and the degree of sprouting measured using Cell∧B imaging software (Olympus, Tokyo, Japan). The mean of the three longest angiogenic sprouts on each ring was measured.
Figure 3 JK-31 inhibits angiogenesis in an ex vivo murine model and in vitro. […] (B) Absolute quantification of angiogenic sprout length. For each aortic ring, the mean of three longest sprouts was calculated. […] (D) Fluorescence microscopy analysis of endothelial cell phenotypes and filopodia formation during tubulogenesis in the presence of VEGF-A and JK-31. […] Quantification of (F) mean tubule branch length and (G) mean number of tubule branch points in response to JK-31 and exogenous growth factors. Light micrograph fields were chosen at random and quantification performed using Image J software. […]

[11] = system: HUVECs; test: Organotypic tubulogenesis assay (HUVEC-fibroblast co-culture); type: cell-based, human; details: for inhibition at 10 µM / inhibition at 50 µM: Homo sapiens, HUVEC
Experimental: This assay was performed as previously described, [27]. Primary human foreskin fibroblasts (pHFF) were a gift from Gareth Howell (University of Leeds, UK) and were cultured routinely in DMEM containing 10% (v/v) FBS up to passage 10. In co-culture with HUVECs, the medium was replaced for endothelial cell growth medium (Promocell, Heidelberg, Germany).
Figure 3 JK-31 inhibits angiogenesis in an ex vivo murine model and in vitro. (A) Effects of JK-31 on ex vivo angiogenic sprouting from wild-type mouse aortic ring explants. Aortic rings were seeded onto Matrigel and treated with JK-31 (0, 1, 10 or 50 µM) for six days and imaged by phase-contrast microscopy. Freehand black lines delineate the outermost extent of sprouting. (B) Absolute quantification of angiogenic sprout length. For each aortic ring, the mean of three longest sprouts was calculated. Error bars represent ±SEM (n = 18; ***p<0.001). (C) JK-31 inhibits endothelial tube formation in vitro in response to exogenous VEGF-A. HUVECs were seeded onto a confluent layer of primary fibroblasts and treated with VEGF-A (10 ng/ml) for seven days in the presence of DMSO or JK-31 (1, 10 or 50 µM). Co-cultures were stained with CD31 antibody followed by HRP-conjugated secondary antibody and visualized by light microscopy using […] (DAB)-staining (see Materials and Methods). (D) Fluorescence microscopy analysis of endothelial cell phenotypes and filopodia formation during tubulogenesis in the presence of VEGF-A and JK-31. White arrowheads indicate vestigial lamellipodia-like structures. (E) JK-31 inhibits endothelial tube formation in vitro in response to exogenous bFGF (20 ng/ml). Treatment and processing was carried out as described above. Quantification of (F) mean tubule branch length and (G) mean number of tubule branch points in response to JK-31 and exogenous growth factors. Light micrograph fields were chosen at random and quantification performed using Image J software. Error bars represent ± SEM (n = 10; *p<0.05; **p<0.01; ***p<0.001) for each respective growth factor.

[12] = target: T2, recombinant human CDK1/cyclin B complex; parameters: method as in PMID 16204078; details: relative potency from IC50 values of a previous study; cited from earlier work
[13] = JK-31 10 or 50 µM, vs asynchronous controls

SMILES: CC(C)(C)c1ccc(C(=O)n2nc(Nc3ccccc3)nc2N)cc1 [JK-31, (5-amino-3-(phenylamino)-1H-1,2,4-triazol-1-yl)(4-(tert-butyl)phenyl)methanone]
- ERK1/2 phosphorylation in response to IGF-1 [1]: not in response to either EGF or IGF-1
- Number of cells present in G1 ([2]; JK-31 10 or 50 µM): significant increase in the number of cells present in G1
- Proportion of cells in G2/M phase [2, 13]: significant decrease in the proportion of cells in the G2/M phase
- Number of cells present in S phase ([2]; JK-31 treatment): not a significant change
- IC50 ([3]; [γ-33P]-ATP 10 µM, substrate poly[Glu:Tyr] (4:1), ten-point curves): 0.627 µM
- Selectivity for VEGFR2 than CDK1 ([3]; relative potency from IC50 values): ~4 fold
- IC50 [4]: 2.54 µM
- VEGF-A-stimulated wound closure ([5]; VEGF-A 25 ng/ml): completely inhibited
- Wound closure in full growth medium ([5]; full growth medium): only partially inhibited
- Inhibition of phosphorylation of residue Y1175 within VEGFR2 ([6]; HUVECs, JK-31 10 µM and above, 30 min pre-treatment, VEGF-A 25 ng/ml 7.5 min): > 60%
- VEGF-A-stimulated signal transduction (PLCγ1-pY783, Akt-pS473, ERK1/2-pT202/pY204) ([6]; HUVECs, JK-31 0.1-50 µM, VEGF-A 25 ng/ml 7.5 min): inhibited VEGF-A-stimulated signal transduction in a dose-dependent manner
- Cellular IC50 relative to cell-free phosphorylation assay ([6]; VEGF-A-stimulated VEGFR2 activation and downstream signaling in endothelial cells vs recombinant kinases): approximately 10 fold
- Cytotoxic effects on endothelial cells (cell viability, MTS) [7]: no significant cytotoxic effects
- Number of cells present in G1 ([8]; JK-31 10 or 50 µM): significant increase in the number of cells present in G1
- Proportion of cells in G2/M phase [8, 13]: significant decrease in the proportion of cells in the G2/M phase
- Number of cells present in S phase ([8]; JK-31 treatment): significantly decreased
- ERK1/2 phosphorylation in response to aFGF ([9]; aFGF 50 ng/ml 10 min): dose-dependent inhibition
- ERK1/2 phosphorylation in response to bFGF ([9]; bFGF 50 ng/ml 10 min): dose-dependent inhibition
- Inhibition of radial angiogenic sprout formation [10]: more than 40%
- Reduction of bFGF-stimulated branching ([11]; 10 µM, bFGF 20 ng/ml): more than 90%
- Endothelial tubule phenotype ([11]; 10 µM, in the presence of VEGF-A): aberrant hyper-branched endothelial tubule phenotype
- Reduction in branching (VEGF-A) ([11]; 50 µM, VEGF-A 10 ng/ml, seven days): more than 80%
- Reduction of bFGF-stimulated branching ([11]; 50 µM, bFGF 20 ng/ml): more than 90%
- inhibition at 10 µM ([11]; 168 h, 10 µM, VEGF-A 10 ng/ml, seven days, read-out: Inhibition of VEGF-A-stimulated endothelial tube formation): ~35%
- inhibition at 50 µM ([11]; 168 h, 50 µM, VEGF-A 10 ng/ml, seven days, read-out: Inhibition of VEGF-A-stimulated endothelial tube formation): > 80%
- inhibition at 10 µM ([11]; 10 µM, bFGF 20 ng/ml, read-out: Inhibition of bFGF-stimulated endothelial tube formation): ~75%
- inhibition at 50 µM ([11]; 50 µM, bFGF 20 ng/ml, read-out: Inhibition of bFGF-stimulated endothelial tube formation): > 95%

SMILES: Nc1nc(Nc2ccc(S(N)(=O)=O)cc2)nn1C(=O)c1c(F)cccc1F [JNJ-7706621]
- More potent inhibitor of CDK1 than VEGFR2 [12]: ~17 fold
